Data: PMC11499995 (Communications Biology, 2024)

Target: T1, mNeonGreen (Branchiostoma lanceolatum, UniProt A0A1S4NYF2, C173I/S175A/W191I)
T1 sequence (A0A1S4NYF2 25-260 C173I/S175A/W191I): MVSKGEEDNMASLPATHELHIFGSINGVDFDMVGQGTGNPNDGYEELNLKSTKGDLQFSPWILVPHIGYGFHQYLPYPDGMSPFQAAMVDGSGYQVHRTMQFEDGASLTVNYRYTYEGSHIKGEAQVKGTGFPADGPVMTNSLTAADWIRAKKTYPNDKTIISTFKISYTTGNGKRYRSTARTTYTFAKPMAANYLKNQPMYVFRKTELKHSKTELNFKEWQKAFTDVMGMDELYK
Assay: fluorescence quenching titration, purified protein
Assay type: binding

Kd: 33 ± 3 mM
SMILES: O=S(=O)(O)O [sulfate]
